These results are taken from PMC11720699, “Developing Allosteric Chaperones for GBA1-Associated Disorders—An Integrated Computational and Experimental Approach” (International Journal of Molecular Sciences, 2024).

SMILES strings stand for the structures. Numbering of substitutions follows the chain as printed.

In assay [1] the target is T1, human recombinant GCase (Cerezyme) (Homo sapiens, UniProt P04062, R534H).
T1 construct: The human full-length GCase protein (Cerezyme, wild type, not tagged; Genzyme, Naarden, The Netherlands); purchased Genzyme
T1 sequence (P04062 40-536 R534H): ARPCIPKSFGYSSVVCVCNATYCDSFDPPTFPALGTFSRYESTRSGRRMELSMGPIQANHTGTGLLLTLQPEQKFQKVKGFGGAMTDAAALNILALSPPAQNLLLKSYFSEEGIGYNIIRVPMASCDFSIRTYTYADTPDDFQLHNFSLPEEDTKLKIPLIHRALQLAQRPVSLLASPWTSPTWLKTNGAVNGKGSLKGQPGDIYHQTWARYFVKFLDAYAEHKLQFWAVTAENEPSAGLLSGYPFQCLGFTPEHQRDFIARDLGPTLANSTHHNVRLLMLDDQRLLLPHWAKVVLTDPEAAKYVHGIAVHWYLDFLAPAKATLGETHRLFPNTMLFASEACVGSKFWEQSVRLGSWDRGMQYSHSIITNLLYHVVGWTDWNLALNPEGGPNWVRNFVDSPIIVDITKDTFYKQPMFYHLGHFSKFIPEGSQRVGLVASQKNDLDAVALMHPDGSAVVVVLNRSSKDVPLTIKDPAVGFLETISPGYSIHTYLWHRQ
Kind of assay: Surface plasmon resonance (SPR) binding to immobilized GCase. The note with it: pH 7.4; for Chi^2 / Offset: SPR fit; for Dose-response / Kd / Rmax: SPR. The procedure:
The surface plasmon resonance (SPR) technique is used to detect changes in the refractive index on the surface of a sensor due to changes in mass. […] Binding to GCase by SPR was confirmed for selected compounds using recombinant human GCase protein at a neutral pH of 7.4 (Figure 4A,B). […] Compounds 2 and 3, along with isofagomine (IFG) as a control, were evaluated in an activity assay using lysates from wild-type fibroblasts (Figure 4C).
All SPR experiments were performed at 20 °C using the Biacore T200 (GE Healthcare, Uppsala, Sweden). SPR detects changes in the refractive index on the sensor surface due to mass changes, which helps measure the interaction between the GCase protein (Cerezyme) and the tested compounds.
The human full-length GCase protein (Cerezyme, wild type, not tagged; Genzyme, Naarden, The Netherlands) was immobilized on an SPR CM5 sensor (29149603, GE Healthcare, Chicago, IL, USA) using standard amino coupling with a high protein concentration of 100 µg/mL. A nine-point, 2-fold serial dilution starting from 180 µM of the compound (from a 10 mM stock solution in DMSO) was tested by SPR at pH 7.4 in a buffer containing 10 mM Hepes, 5 mM EDTA, 150 mM NaCl, 0.01% Tween-20, 0.5 mg/mL CM-Dextran, and 5% DMSO. Reference channels included empty, activated, and deactivated channels on the same SPR sensor. The raw SPR signals from the active channel with immobilized GCase were adjusted by subtracting signals from the reference channel and the running buffer (double referenced) and corrected for any DMSO signal mismatch. Binding affinity values were extracted by fitting the SPR data to a four-parameter logarithmic dose-response equation without constraints using GraphPad Prism version 10.2.3.

A further assay deals with T2, GCase (Homo sapiens, UniProt P04062).
T2 sequence (P04062 40-536): T1 sequence (P04062 40-536 R534H) with H495R
Briefly: GCase biochemical activity assay in wild-type fibroblast lysates. On the set-up: endogenous in cells; host or cells: wild-type fibroblasts (lysate). The note with it: pH 5.6. The procedure: Lysates were prepared from wild-type fibroblasts using a lysis buffer containing 0.9% NaCl and 0.01% Triton-X100. Protein concentration was measured with a BCA protein assay kit. The cell lysates were then incubated with the specified compound for 15 min. The assay was conducted in a reaction buffer with 5 mM 4-methylumbelliferyl-beta-D-glucopyranoside in 0.1 M citrate-phosphate buffer at pH 5.6. The reactions were incubated at 37 °C for 1 h. To stop the reaction, 140 µL of 100 mM Glycine-NaOH buffer at pH 10.7 was added. The released 4-MU was measured using a Glomax® Discover microplate reader, with excitation at 340 nm and emission at 460 nm.

As for `CN(C(=O)c1cc(N)cc(Nc2cccc3c2OCO3)n1)c1ccccc1` [Compound 3], in assay [1], the “Chi^2” value turned out to be 2.61 RU^2, the Offset was −1.406 RU, the Dose-response result is recorded as “Yes” and the Kd is 50.7 µM. The Rmax in assay [1] amounted to 22.73 RU. Also, the “effect on GCase enzymatic activity in lysates” value at GCase was “without altering its enzymatic function”.

For `CN(Cc1ccccc1)Cc1nc(N)nc(Nc2cccc(Br)c2)n1` [Compound 2], in assay [1], the “Chi^2” value is 1.28 RU^2, the Offset worked out at 1.959 RU, the Dose-response entry is “Yes” and the Kd turned out to be 29.8 µM. Further, in assay [1], the Rmax was found to be 35.57 RU. Moreover, the “effect on GCase enzymatic activity in lysates” value at GCase is “displayed inhibitory effects”.
